# Data: patent US8614246B2, “Indole derivatives for treating neurodegenerative diseases” (Centre National de la Recherche Scientifique (CNRS), priority 2009, dated 2013)
# Legend:
# [1] = test system: reactive oxygen species (ROS) in neurones of ventral mesencephalon cultures; assay: Cellular test with dihydrorhodamine 123 (DHR-123); type: cell-based, rat; conditions: compounds 10 nM for eight days, 50 μM DHR-123 30 minutes; control = 100; Trolox at 10 μM per FIG. 1
# Description: Dihydrorhodamine 123 or DHR123 is used as an indicator of reactive oxygen species (ROS). It is uncharged and not fluorescent and passes passively through the cellular membrane before being oxidised in contact with free radicals, into rhodamine 123 emitting green fluorescence.
# The quantity of intracellular ROS is reduced when the cells are treated by an anti-oxidant. This reduction results in a quantifiable decay in emitted fluorescence in the presence of DHR123.
# In order to conclude the role of the anti-oxidant capacity of compounds according to the invention in the observed neuroprotectrive activity, the cultures were placed strictly under the same conditions as for the neuroprotection/neuritogenesis test. Thus, the cultures were kept for eight days in the presence of a concentration of 10 nM of each of the tested tryptaminic derivatives. On the 8th day in vitro (DIV 8), 50 μM of DHR-123 (Sigma) was added and the cells were incubated for 30 minutes at 37° C. They were then washed three times, treated once again by compounds according to the invention and placed in a medium without any phenol red. Living fluorescent neurones that were immediately photographed can be observed, the fluorescence density per neurone being quantified under an inverted fluorescence microscope by an image analysis software.
# [2] = Test with ABTS (anti-oxidant capacity, hydroxyl radicals generated by Fenton's reaction); type: biochemical; conditions: 30 minutes at ambient temperature, range 10 nM to 1 mM, read-out: IC50 ± SEM (concentration at which 50% of hydroxyl radicals have been reduced) (converted)
# Text: ABTS or 2,2′-azino-bis-(3-ethylbenzthiazoline-6-sulfonic) acid is a coloured indicator of the presence of hydroxyl radicals in solution. The attack of a hydroxyl radical on ABTS generates the formation of an ATBS^+. cation radical (Equation 1). This coloured entity makes the absorbance (Abs) of the solution equal to 450 nm. ABTS+HO. ? ABTS^+. +HO^− Equation 1
# During the test, hydroxyl radicals are generated by Fenton's reaction in the presence of iron and hydrogen peroxide (Equation 2) H2O2+Fe^2+ ? HO. +HO^−+Fe^3+ Equation 2
# When a radical trap or antioxidant is present in solution, competition with ABTS is set up for reduction of hydroxyl radicals, which reduces the absorbance (Abs) at 450 nm.
# The percentage of hydroxyl radicals converted into hydroxyl ions (% conversion) by the compound of interest may be calculated using Formula 1: […]
# The anti-oxidant capacity of a compound may then be expressed in the form of IC50 that reflects the concentration at which 50% of hydroxyl radicals have been reduced by the tested compound.
# Thus, the compounds to be tested and Trolox® were solubilised in ethanol so as to obtain solutions at 1 mM. We used cascade dilutions to obtain a concentration range varying from 1 mM to 10 nM. 90 μL of a 1:1 water-ethanol mixture was then added onto an ELISA 96-well plate, followed by 15 μL of an aqueous solution of ABTS at 1 mM, 15 μL of an aqueous solution of Fe2SO4 at 0.5 mM, 15 μL of each compound to be tested at different concentrations, and then 15 μl of an aqueous solution of hydrogen peroxide at 100 mM. The mixtures thus obtained were stirred at ambient temperature sheltered from air for 30 minutes, and the value of the absorbance at […] was then measured. The capacity of each compound to reduce hydroxyl radicals is determined by the reduction in absorbance at 450 nm, the control solution being composed of pure ethanol. Therefore, the ABTS test was made in comparison with Trolox®. The same ranges from 10 nm to 1 mM of indoles 1a, 1c, 1g, 1i, 2a, 4c, 2g, 2h and 2i were tested.
# [3] = test system: dopaminergic neurons (TH+ neurons) in primary cultures of ventral mesencephalon; assay: Neuroprotection: counting of remaining TH+ neurons in primary cultures of ventral mesencephalon (spontaneous death of dopaminergic neurons); type: cell-based; conditions: Product 10 nM, 8 days culture, rat embryo ventral mesencephalon; untreated control = 100
# Description: (§1) Dissection. Dissection consists of extracting embryos from the uterus of a rat after fifteen days of gestation. The brain of each embryo is then dissected under magnifying binoculars in order to extract the ventral mesencephalus.
# (§2) Seeding. Mesencephalons are grouped in a flask containing 2 mL of L15 medium and then mechanically dissociated (30 repeat operations), 5 mL of L15 medium are added. The suspension is allowed to stand for 8 minutes. The 5 mL float is then recovered in a new flask and the cells are dissociated again (30 repeat operations). 5 mL of L15 is added again and the suspension is left to stand for 8 minutes. The 5 mL float is added to the previous float. The cells thus extracted are then centrifuged for 5 minutes at 1000 rpm^−1. The cell sediment is dissolved in a Neurobasal medium supplemented with 1% of B27, 1% of glutamine and 1% of a mixture of penicillin and streptomycin. The cells are then seeded at an appropriate dilution (0.6 embryos per well in 24-well plates and 0.4 per well in 48-well plates). The cultures are incubated at 37° C. in a wet atmosphere enriched with 5% CO2 in 24-well or 48-well plates.
# (§3) Treatment. After 24 hours, two-thirds of the medium in each well is replaced by a new medium enriched with the product to be tested at the appropriate dilution. The medium is replaced in the same way after 4 days of culture.
# (§4) Immunohistochemistry. After 8 days culture, the cells are fixed by a solution of 4% formaldehyde and then washed three times with PBS. The cells are then submitted to anti-tyrosine hydroxylase (TH) immunohistochemistry, developed by a secondary antibody coupled to a fluorophore emitting in the red (Cy3).
# (§5) Analyses. Neuroprotection is evaluated by counting positive TH neurons with 10 fields per well directly under an inverted fluorescence microscope, reported as a percentage of the untreated control. Experiments are done on three wells per condition. Three independent experiments are done under these conditions. The total neuritic length per cell is calculated using Explora Nova's Neurite Outgrowth software on 60 to 100 neurons photographed independently per condition.
# (§6) Primary cultures of ventral mesencephalon of rat embryos after 15.5 days of gestation under conditions causing spontaneous death of dopaminergic neurons, are maintained in the presence or absence of the compounds to be tested for 8 days. After fixing, the cultures are submitted to immunocytochemistry directed against tyrosine hydroxylase, a specific marker of dopaminergic neurons.
# The neuroprotective potential of each compound is then estimated by counting the number of remaining neurons (TH^+ neurons) under a fluorescence microscope. The results for the different treatments are expressed as a percentage of the number of neurons remaining relative to untreated cultures (Control).
# (§7) All experiments were done by comparison with a positive control, dibutyryl-AMP cyclic (db-AMPc) (Mourlevat S. et al. Mol. Pharmacol. 2003, 64 (3), 578-586).
# [4] = test system: dopaminergic neurons (TH+ neurons) in primary cultures of ventral mesencephalon; assay: Neuritogenesis: total neuritic length per dopaminergic neuron in primary cultures of ventral mesencephalon; type: cell-based; conditions: Product 10 nM, 8 days culture, rat embryo ventral mesencephalon; untreated control = 100
# Description: as §1, §2, §3, §4, §5, §6
# Neuritogenesis is quantified by measuring the total neuritic length per dopaminergic neuron (neuritic length/TH^+ neuron) using an image analyser on a minimum of sixty photographed neurons per condition (10-30% of all dopaminergic neurons).
# as §7
smiles,measurement,setting,value
"O=C(CCCCCCCCCCCCCCO)NCCc1c[nH]c2ccccc12 [Compound 1i, N-(2-(1H-indol-3-yl)ethyl)-15-hydroxypentadecanamide]",IF/neurone (%) (fluorescence intensity per neurone),[1],56.5 ± 2.7 %
"Cc1c(C)c2c(c(C)c1O)CCC(C)(C(=O)O)O2 (stereo not shown) [Trolox ®, reference compound]",IC50,[2],550 ± 20 µM
same,IF/neurone (%) (fluorescence intensity per neurone),[1],44.0 ± 2.8 %
CCCCCCCCCCCCCCCCCCCCNCCc1c[nH]c2ccccc12 [Compound 2f],"TH+ neurons, % relative to control ± SEM",[3],128.9 ± 3.4 %
same,"Neuritic length/TH+ neuron, % relative to control ± SEM",[4],132.6 ± 6.2 %
"OCCCCCCCCCCCCCCCNCCc1c[nH]c2ccccc12 [Compound 2i, N-(2-(1H-indol-3-yl)ethyl)-15-hydroxypentadecanamine]","TH+ neurons, % relative to control ± SEM",[3],129.4 ± 5.0 %
same,"Neuritic length/TH+ neuron, % relative to control ± SEM",[4],160.8 ± 13.8 %
same,IC50,[2],730 ± 10 µM
same,IF/neurone (%) (fluorescence intensity per neurone),[1],44.0 ± 3.6 %
"CCCCCCCCCCCCCCCCCCCC(=O)NCCc1c[nH]c2ccccc12 [Compound 1f, N-(2-(1H-indol-3-yl)ethyl)icosanamide]","TH+ neurons, % relative to control ± SEM",[3],121.8 ± 2.0 %
same,"Neuritic length/TH+ neuron, % relative to control ± SEM",[4],147.4 ± 7.0 %
"CCCCCCCCCCCCCNCCc1c[nH]c2ccccc12 [Compound 2a, N-(2-(1H-indol-3-yl)ethyl)tridecan-1-amine]",IC50,[2],810 ± 140 µM
"CCCC(=O)Nc1ncnc2c1ncn2[C@@H]1O[C@@H]2COP(=O)(O)O[C@H]2[C@H]1OC(=O)CCC [db-AMPc, dibutyryl-AMP cyclic, reference compound]","TH+ neurons, % relative to control ± SEM",[3],149.9 ± 3.6%
same,"Neuritic length/TH+ neuron, % relative to control ± SEM",[4],333.1 ± 8.7 %
"CCCCCCCCCCCCCCCCCCNCCc1c[nH]c2ccccc12 [Compound 2e, N-(2-(1H-indol-3-yl)ethyl)octadecan-1-amine]","TH+ neurons, % relative to control ± SEM",[3],129.9 ± 3.5 %
same,"Neuritic length/TH+ neuron, % relative to control ± SEM",[4],157.3 ± 10.3 %
"CCCCCCCCCCCCCCCCCCCCCCCNCCc1c[nH]c2ccccc12 [Compound 2g, N-(2-(1 H-indol-3-yl)ethyl)tricosan-1-amine]","TH+ neurons, % relative to control ± SEM",[3],129.6 ± 3.5 %
same,"Neuritic length/TH+ neuron, % relative to control ± SEM",[4],141.2 ± 5.0 %
same,IC50,[2],670 µM
"CCCCCCCCCCCCCCCC(=O)NCCc1c[nH]c2ccccc12 [Compound 1c, N-(2-(1H-indol-3-yl)ethyl)hexadecanamide]","TH+ neurons, % relative to control ± SEM",[3],121.3 ± 3.2 %
same,"Neuritic length/TH+ neuron, % relative to control ± SEM",[4],168.6 ± 11.5 %
same,IF/neurone (%) (fluorescence intensity per neurone),[1],55.9 ± 3.0 %
